Data published in patent US20200113954A1, “PHARMACEUTICAL AND FOOD COMPOSITION FOR THE TREATMENT OF VAGINAL AND INTESTINAL DYSBIOSIS” (priority 2018, published 2020).

System: vulvovaginal candidiasis
Experiment: Third pilot study: open-label, Microbio+ capsules vs topical clotrimazole in women with uncomplicated vulvovaginal candidiasis
Format: in vivo, human
Description: Study of the Effect of Microbio+ CAPSULES in Woman with Uncomplicated Vulvovaginal Candidiasis.
The primary endpoints are:
reduction in frequency of recurrences
re-equilibrium of the vaginal microflora (through assessment of clinical signs and Lactobacillus grade) in women with uncomplicated vulvovaginal candidiasis.
CLOTRIMAZOLE group: single administration of topical antifungal treatment with no maintenance cycle
Group B: Microbio+ for 15 consecutive days and maintenance cycle of 5 days a month in premenstrual phase for 3 months
Uncomplicated Vulvovaginal candidiasis;
Microscopic diagnosis of vulvovaginal candidiasis through wet mount or vaginal culture;
Not menopausal (defined as 12 or more months since last menstrual cycle at appropriate age);
The total study duration is 12 weeks.
Diagnosis (V0) and start of treatment
Day 15, day 30 and day 90 visits (V1, 2 and 3): At each visit, the patient was asked if they had taken the treatment regularly and if they had experienced any clinical symptoms or adverse events. A clinical examination, microscopic wet mount examination or (if available) cultural examination were performed to establish the effect of the treatment and the lactobacillus grade.
Primary outcomes: • Evaluation of the efficacy of Microbio+ in women with acute VVC: • 1. Clinical cure rate (resolution of symptoms) of VVC at 15, 30 and 90 days; • 2. Microbiological and microscopic cure of VVC (negative vaginal culture or absence of hyphae at wet mount); • 3. Recurrence rate (defined as the presence of symptoms or positive fungal culture or presence of hyphae at wet mount) in 3-month follow-up period.
Secondary outcomes: • Safety and tolerability of Microbio+ in adult women.

[1] = at 15 and 30 days, 20 patients per arm
[2] = within the 3 months of follow-up, 20 patients per arm

Compound: Clc1ccccc1C(c1ccccc1)(c1ccccc1)n1ccnc1 [clotrimazole, Clotrimazole]
- clinical and microbiological cure in 1 month (1 month, FIG. 6 summary): 80%
- clinical and microbiological cure, number of women [1]: 16 women
- clinical and microbiological cure, percent of women [1]: 80%
- symptomatic recurrences (symptom recurrence rate), percent of women [2]: 40%
- symptomatic recurrences, number of women [2]: 8 women
